Data reported in US6849645B2, “Method of increased bioavailability of nutrients and pharmaceutical preparations with tetrahydropiperine and its analogues and derivatives” (priority 2000, dated 2005).

Tested on: Earthworms
Assay: Albendazole induced anthelmintic activity on earthworms (paralysis and death)
Assay type: in vivo, earthworm
Procedure: An experiment to see how tetrahydropiperine enhances the skin permeability of anthelmintic drugs such as albendazole on intestinal worms was conducted. However, as a preliminary study towards this, tests on earthworms were conducted.
Earthworms were obtained from the Al Ameen College of Pharmacy, Bangalore. Albendazole (Zentel) was obtained from Smith Kline Beecham Pharmaceuticals, Bangalore. The aqueous test solution contained tetrahydropiperine (Tetraperine™, A proprietary product of Sabinsa Corporation, USA) of 0.1% and 0.2% w/v suspended in 0.25% w/v sodium carboxy methyl cellulose.
1. Effect of Albendazole: Earth worms of similar length and weight were divided into three groups of six worms each. […] The time of onset of paralysis was noted and the death of the worms were observed and recorded as above.

[1] = Albendazole 0.2% + THP 0.1% vs Albendazole 0.2%
[2] = Albendazole 0.2% + THP 0.1% w/v
[3] = Albendazole 0.2% + THP 0.2% vs Albendazole 0.2%
[4] = Albendazole 0.2% + THP 0.2% w/v

O=C(CCCCc1ccc2c(c1)OCO2)N1CCCCC1 [Tetrahydropiperine, 1-[5-(1,3-Benzodioxol-5 yl)-1-oxo-pentanoyl]-Piperidine]
% Reduction in time for Death [1]: 11.03%
% Reduction in time for Paralysis [1]: 12.81%
Time taken in minutes (Mean ± SEM), Death [2]: 98.16 ± 5.19 min
Time taken in minutes (Mean ± SEM), Paralysis [2]: 86.31 ± 4.3 min
% Reduction in time for Death [3]: 32.32%
% Reduction in time for Paralysis [3]: 37.36%
Time taken in minutes (Mean ± SEM), Death [4]: 74.64 ± 2.98 min
Time taken in minutes (Mean ± SEM), Paralysis [4]: 62.01 ± 3.33 min
change in time taken for paralysis and death (Albendazole 0.2% co-administered with tetrahydropiperine 0.2%): showed a reduction
% Reduction in time for Death (THP 0.1% alone): Nil
% Reduction in time for Paralysis (THP 0.1% alone): Nil
change in time of paralysis and death compared with standard concentration (Tetrahydropiperine 0.1% with albendazole 0.2%, unpaired t test): no change
